Experimental data reported in patent US20240041042A1, “1-(PYRIDYL)-5-AZINYLPYRAZOLE DERIVATIVES, AND THEIR USE FOR CONTROL OF UNDESIRED PLANT GROWTH” (Bayer Aktiengesellschaft, priority 2020, published 2024).
Read-outs that look alike come from different tables or passages of the source.

Tests used:
Format in all cases: in vivo
[1] = system: Polygonum convolvulus (POLCO); test: Pre-emergence herbicidal action against POLCO
Method in brief: (§1)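 Herbicide applied to soil before seedling emergence, at 600 l/ha spray volume with 0.5% additive and rates up to 320 g/ha. Evaluation: visual percentage effect, about 3 weeks later, greenhouse-grown pots compared with untreated ones.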

[2] = system: Matricaria inodora (MATIN); test: Post-emergence herbicidal action against MATIN; details: dosage 320 g/ha
Method in brief: (§2)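 Values are percent visual activity (0% like control, 100% plants dead) after about 3 weeks in the greenhouse. Treatment: post-emergence spray at one-leaf stage, 600 l/ha spray volume, 0.5% additive, doses 320 g/ha or lower.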

[3] = system: Setaria viridis (SETVI); test: Pre-emergence herbicidal action against SETVI
Method in brief: as §1

[4] = system: Verconica persica (VERPE); test: Pre-emergence herbicidal action against VERPE
Method in brief: as §1

[5] = system: Viola tricolor (VIOTR); test: Pre-emergence herbicidal action against VIOTR
Method in brief: as §1

[6] = system: Lolium rigidum (LOLRI); test: Post-emergence herbicidal action against LOLRI; details: dosage 320 g/ha
Method in brief: as §2

[7] = system: Echinochloa crus-galli (ECHCG); test: Pre-emergence herbicidal action against ECHCG
Method in brief: as §1

[8] = system: Echinochloa crus-galli (ECHCG); test: Post-emergence herbicidal action against ECHCG
Method in brief: as §2

[9] = system: Avena fatua (AVEFA); test: Post-emergence herbicidal action against AVEFA; details: 320 g/ha, visual rating about 3 weeks after treatment
Method in brief: as §2

[10] = system: Abutilon theophrasti (ABUTH); test: Pre-emergence herbicidal action against ABUTH; details: 100% = plants have died
Method in brief: as §1

[11] = system: Pharbitis purpurea (PHBPU); test: Pre-emergence herbicidal action against PHBPU; details: dosage 320 g/ha
Method in brief: as §1

[12] = system: Alopecurus myosuroides (ALOMY); test: Post-emergence herbicidal action against ALOMY; details: visual rating about 3 weeks after treatment vs untreated controls (100% = plants have died, 0% = like control plants)
Method in brief: as §2

[13] = system: Matricaria inodora (MATIN); test: Pre-emergence herbicidal action against MATIN
Method in brief: as §1

[14] = system: Pharbitis purpurea (PHBPU); test: Post-emergence herbicidal action against PHBPU
Method in brief: as §2

[15] = system: Alopecurus myosuroides (ALOMY); test: Pre-emergence herbicidal action against ALOMY; details: scored visually after about 3 weeks, 100% = plants have died
Method in brief: as §1

[16] = system: Abutilon theophrasti (ABUTH); test: Post-emergence herbicidal action against ABUTH; details: visual rating about 3 weeks after treatment vs untreated controls (100% = plants have died, 0% = like control plants)
Method in brief: as §2

[17] = system: Oryza sativa (ORYSA); details: crop plant compatibility
Method in brief: (§3)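 Visual rating (% effect vs. untreated plants; 100% = plant death) made about 3 weeks after treatment. Plants had been sprayed at one-leaf stage, 2–3 weeks post-sowing, with aqueous WP/EC preparations containing 0.5% additive, 600 l/ha water volume; a, b, c mark dose levels.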

[18] = system: Setaria viridis (SETVI); test: Post-emergence herbicidal action against SETVI
Method in brief: as §2

[19] = system: Polygonum convolvulus (POLCO); test: Post-emergence herbicidal action against POLCO
Method in brief: as §2

[20] = system: Amaranthus retroflexus (AMARE); test: Pre-emergence herbicidal action against AMARE; details: visual scoring after about 3 weeks vs untreated controls
Method in brief: as §1

[21] = system: Avena fatua (AVEFA); test: Pre-emergence herbicidal action against AVEFA; details: 320 g/ha, visual scoring after about 3 weeks vs untreated controls
Method in brief: as §1

[22] = system: Amaranthus retroflexus (AMARE); test: Post-emergence herbicidal action against AMARE
Method in brief: as §2

[23] = system: Zea mays (ZEAMX); details: pre-emergence, 80 g/ha, crop plant compatibility, in comparison to untreated controls
Method in brief: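 Scoring: visual, % of untreated control, about 3 weeks after a pre-emergence application to the soil surface. Application used WP or EC formulations diluted in water with 0.5% additive at 600 l/ha; dosage levels are marked by suffixes a, b and c.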

[24] = system: Lolium rigidum (LOLRI); test: Pre-emergence herbicidal action against LOLRI; details: dosage 320 g/ha
Method in brief: as §1

[25] = system: Verconica persica (VERPE); test: Post-emergence herbicidal action against VERPE
Method in brief: as §2

[26] = system: Zea mays (ZEAMX)
Method in brief: as §3

[27] = system: Viola tricolor (VIOTR); test: Post-emergence herbicidal action against VIOTR
Method in brief: as §2

[28] = system: Digitaria sanguinalis (DIGSA); test: Post-emergence herbicidal action against DIGSA; details: 80 g/ha, visual rating about 3 weeks after treatment
Method in brief: as §2

[29] = system: Digitaria sanguinalis (DIGSA); test: Pre-emergence herbicidal action against DIGSA
Method in brief: as §1

[30] = Dosage column 320 g/ha (title prints 3200 g/ha), scored visually after about 3 weeks
[31] = 80 g/ha, effect in comparison to untreated controls
[32] = 80 g/ha, visual rating about 3 weeks after treatment vs untreated controls (100% = plants have died, 0% = like control plants)
[33] = 320 g/ha, visual rating about 3 weeks after treatment

| SMILES | Pre-emergence action against POLCO in % ([1]; dosage 320 g/ha) | Pre-emergence action against SETVI in % ([3]; dosage 320 g/ha) | Pre-emergence action against VERPE in % ([4]; dosage 320 g/ha) | Pre-emergence action against VIOTR in % ([5]; 320 g/ha, Viola tricolor) | Post-emergence action against LOLRI in % [6] | Pre-emergence action against ECHCG in % ([7]; dosage 320 g/ha) | Post-emergence action against ECHCG in % ([8]; dosage 80 g/ha) | Post-emergence action against ECHCG in % ([8]; dosage 320 g/ha) | Pre-emergence action against ABUTH [10, 30] | Pre-emergence action against PHBPU in % [11] | Post-emergence action against ALOMY in % ([12]; 80 g/ha) | Post-emergence action against ALOMY in % ([12]; 320 g/ha) | Pre-emergence action against MATIN in % ([13]; dosage 320 g/ha) | Post-emergence action against PHBPU in % ([14]; dosage 80 g/ha) | Pre-emergence action against ALOMY ([15]; 320 g/ha) | Post-emergence action against ABUTH in % ([16]; 80 g/ha) | Pre-emergence action against AMARE in % ([20]; 320 g/ha) | Pre-emergence action against AVEFA in % [21] | Pre-emergence action against LOLRI in % [24] | Post-emergence action against VERPE in % ([25]; dosage 80 g/ha) | further results |
| --- | --- | --- | --- | --- | --- | --- | --- | --- | --- | --- | --- | --- | --- | --- | --- | --- | --- | --- | --- | --- | --- |
| COC(=O)CCOC(=O)COc1nn(-c2ccccn2)c(-c2ccc(F)nc2)c1Cl [Example I-88] | 90% | 100% | 90% | 90% | 80% | 100% | 80% | 90% | 80% | 80% | 80% | 90% | 90% | 80% | 100% | 80% | 100% | 90% | 100% | 80% | Pre-emergence action against POLCO in % ([1]; dosage 80 g/ha): 80%; Post-emergence action against MATIN in % [2]: 80%; Pre-emergence action against VERPE in % ([4]; dosage 80 g/ha): 80%; Pre-emergence action against ECHCG in % ([7]; dosage 80 g/ha): 90%; Post-emergence action against AVEFA in % [9]: 90%; Post-emergence action against PHBPU in % ([14]; dosage 320 g/ha): 80%; Pre-emergence action against ALOMY ([15]; 80 g/ha): 80%; Post-emergence action against ABUTH in % ([16]; 320 g/ha): 80%; Post-emergence action against ORYSA in % [17, 31]: 0%; Post-emergence action against SETVI in % ([18]; dosage 320 g/ha): 80%; Post-emergence action against POLCO in % ([19]; dosage 80 g/ha): 80%; Post-emergence action against POLCO in % ([19]; dosage 320 g/ha): 80%; Pre-emergence action against AMARE in % ([20]; 80 g/ha): 80%; Post-emergence action against AMARE in % [22, 32]: 80%; Post-emergence action against AMARE in % [22, 33]: 80%; Pre-emergence action against ZEAMX in % [23]: 20%; Post-emergence action against VERPE in % ([25]; 320 g/ha, VERPE): 80% |
| O=C(O)COc1nn(-c2ncccc2C(F)(F)F)c(-c2ccc(F)nc2)c1Cl [Example I-327] | 90% | 100% |  | 100% | 90% |  | 80% | 90% | 100% | 80% |  | 100% | 80% |  | 100% | 80% | 100% | 80% | 100% | 80% | Pre-emergence action against VIOTR in % ([5]; dosage 80 g/ha): 100%; Pre-emergence action against ABUTH ([10]; 80 g/ha, scored visually after about 3 weeks vs untreated controls, 0% = like control plants): 100%; Pre-emergence action against MATIN in % ([13]; dosage 80 g/ha): 80%; Post-emergence action against ABUTH in % ([16]; 320 g/ha): 90%; Post-emergence action against ZEAMX in % ([26]; crop plant compatibility, 80 g/ha, effect vs untreated controls): 0%; Post-emergence action against ORYSA in % [17, 31]: 0%; Post-emergence action against SETVI in % ([18]; dosage 320 g/ha): 90%; Post-emergence action against POLCO in % ([19]; dosage 320 g/ha): 80%; Post-emergence action against AMARE in % [22, 32]: 90%; Post-emergence action against AMARE in % [22, 33]: 90%; Pre-emergence action against ZEAMX in % [23]: 20%; Post-emergence action against VIOTR in % ([27]; 80 g/ha): 90%; Post-emergence action against VIOTR in % ([27]; 320 g/ha): 90%; Post-emergence action against VERPE in % ([25]; 320 g/ha, VERPE): 90% |
| CCOC(=O)COc1nn(-c2ncccc2F)c(-c2ccc(F)nc2)c1Br [Example I-39] | 90% | 100% | 100% | 100% |  | 100% | 80% |  | 90% |  | 100% |  | 100% | 80% | 100% | 90% | 100% | 90% | 100% | 80% | Pre-emergence action against SETVI in % ([3]; dosage 80 g/ha): 100%; Pre-emergence action against VIOTR in % ([5]; dosage 80 g/ha): 100%; Pre-emergence action against ALOMY ([15]; 80 g/ha): 100%; Post-emergence action against ZEAMX in % (crop plant compatibility) ([26]; 20 g/ha, ZEAMX, effect in comparison to untreated controls): 0%; Post-emergence action against ORYSA in % ([17]; 20 g/ha, effect vs untreated controls): 0%; Post-emergence action against SETVI in % ([18]; dosage 80 g/ha): 80%; Post-emergence action against DIGSA in % [28]: 90%; Pre-emergence action against DIGSA in % ([29]; 80 g/ha, visual scoring after about 3 weeks vs untreated controls): 100%; Pre-emergence action against DIGSA in % ([29]; dosage 320 g/ha): 100%; Post-emergence action against POLCO in % ([19]; dosage 80 g/ha): 90%; Pre-emergence action against AMARE in % ([20]; 80 g/ha): 100%; Post-emergence action against VIOTR in % ([27]; 80 g/ha): 80% |
